What was measured:
[1] = Dialysis diffusion: effect of sample concentration; assay type: physicochemical
Procedure: (§1) Dialysis tubing cellulose membrane was cut into approximately 8 cm lengths, washed with hot water for 3 hours. Tubing was then treated with 0.3% (w/v) solution of sodium sulfide at 80° C. for 1 minute, washed with hot water (60° C.) for 2 minutes and followed by acidification with 0.2% sulfuric acid. Tubing was then rinsed with hot water to remove the acid. Test formulations were added, the tubing closed with nylon closures and placed in the dialysate. At various time periods, the dialysate was sampled and the flumazenil released measured by HPLC assay.
Experiments were conducted to test the effect of sample concentration on diffusion rate.
(§2) As described in 1.1 with 600 ml of phosphate buffer pH 4.0 as dialysate.
(§3) A=0.25 g of a 1.5% flumazenil solution in NMP
B=0.25 g of a 3.0% flumazenil solution in NMP
C=0.25 g of a 4.5% flumazenil solution in NMP

[2] = Dialysis diffusion: effect of concentration and sample size (same quantity of flumazenil); assay type: physicochemical
Procedure: as §1
Experiments were conducted to test the effect of different concentrations and different sample sizes (but same quantity of flumazenil) on diffusion rate.
as §2, §3
B=0.125 g of a 3% flumazenil solution in NMP
C=0.083 g of a 4.5% flumazenil solution in NMP

[3] = sample A1 (0.25 g of 1.5% solution in NMP), 2 h
[4] = sample A1 (0.25 g of 1.5% solution in NMP), 3 h
[5] = sample A2 (0.25 g of 1.5% solution in NMP), 1 h
[6] = sample A2 (0.25 g of 1.5% solution in NMP), 2 h
[7] = sample A2 (0.25 g of 1.5% solution in NMP), 3 h
[8] = sample A (0.25 g of 1.5% solution in NMP)

## CCOC(=O)c1ncn2c1CN(C)C(=O)c1cc(F)ccc1-2 [flumazenil, ethyl 8-fluoro-5,6-dihydro-5-methyl-6-oxo-4H-imidazo[1,5-a](1,4)benzodiazepine-3-carboxylate]
[1]; [3]
  % flumazenil released: 100.5%
[1]; [4]
  % flumazenil released: 101.4%
[1]; [5]
  % flumazenil released: 89.8%
[1]; [6]
  % flumazenil released: 100%
[1]; [7]
  % flumazenil released: 101.4%
[1]; [8]
  precipitation during the dialysis: no precipitation was observed
[1]; sample B1 (0.25 g of 3.0% solution in NMP), 1 h
  % flumazenil released: 62.1%
[1]; sample B1 (0.25 g of 3.0% solution in NMP), 2 h
  % flumazenil released: 74.8%
[1]; sample B2 (0.25 g of 3.0% solution in NMP), 1 h
  % flumazenil released: 62.0%
[1]; sample B2 (0.25 g of 3.0% solution in NMP), 2 h
  % flumazenil released: 76.3%
[1]; sample B (0.25 g of 3.0% solution in NMP)
  precipitation during the dialysis: Precipitation was observed
[1]; sample C1 (0.25 g of 4.5% solution in NMP), 1 h
  % flumazenil released: 27.5%
[1]; sample C1 (0.25 g of 4.5% solution in NMP), 2 h
  % flumazenil released: 40.4%
[1]; sample C2 (0.25 g of 4.5% solution in NMP), 1 h
  % flumazenil released: 29.1%
[1]; sample C2 (0.25 g of 4.5% solution in NMP), 2 h
  % flumazenil released: 43.0%
[1]; sample C (0.25 g of 4.5% solution in NMP)
  precipitation during the dialysis: Precipitation was observed
[2]; sample A1 (0.25 g of 1.5% solution in NMP), 1 h
  % flumazenil released: 91.0%
[2]; [3]
  % flumazenil released: 100.3%
[2]; [4]
  % flumazenil released: 101.0%
[2]; sample A1 (0.25 g of 1.5% solution in NMP), 4 h
  % flumazenil released: 100.9%
[2]; sample A1 (0.25 g of 1.5% solution in NMP), 5 h
  % flumazenil released: 101.0%
[2]; sample A1 (0.25 g of 1.5% solution in NMP), 6 h
  % flumazenil released: 100.8%
[2]; [5]
  % flumazenil released: 93.2%
[2]; [6]
  % flumazenil released: 100.7%
[2]; [7]
  % flumazenil released: 100.9%
[2]; sample A2 (0.25 g of 1.5% solution in NMP), 4 h
  % flumazenil released: 101.0%
[2]; sample A2 (0.25 g of 1.5% solution in NMP), 5 h
  % flumazenil released: 100.6%
[2]; sample A2 (0.25 g of 1.5% solution in NMP), 6 h
  % flumazenil released: 100.7%
[2]; [8]
  precipitation in bags during the dialysis: no precipitation observed
[2]; sample B1 (0.125 g of 3% solution in NMP), 1 h
  % flumazenil released: 92.3%
[2]; sample B1 (0.125 g of 3% solution in NMP), 2 h
  % flumazenil released: 99.0%
[2]; sample B1 (0.125 g of 3% solution in NMP), 3 h
  % flumazenil released: 100.4%
[2]; sample B1 (0.125 g of 3% solution in NMP), 4 h
  % flumazenil released: 101.1%
[2]; sample B1 (0.125 g of 3% solution in NMP), 5 h
  % flumazenil released: 100.9%
[2]; sample B1 (0.125 g of 3% solution in NMP), 6 h
  % flumazenil released: 101.1%
[2]; sample B2 (0.125 g of 3% solution in NMP), 1 h
  % flumazenil released: 80.6%
[2]; sample B2 (0.125 g of 3% solution in NMP), 2 h
  % flumazenil released: 92.4%
[2]; sample B2 (0.125 g of 3% solution in NMP), 3 h
  % flumazenil released: 97.3%
[2]; sample B2 (0.125 g of 3% solution in NMP), 4 h
  % flumazenil released: 99.3%
[2]; sample B2 (0.125 g of 3% solution in NMP), 5 h
  % flumazenil released: 100.3%
[2]; sample B2 (0.125 g of 3% solution in NMP), 6 h
  % flumazenil released: 100.6%
[2]; sample B (0.125 g of 3% solution in NMP), rank A < B < C
  precipitation in bags during the dialysis: precipitation was observed
[2]; sample C1 (0.083 g of 4.5% solution in NMP), 1 h
  % flumazenil released: 56.1%
[2]; sample C1 (0.083 g of 4.5% solution in NMP), 2 h
  % flumazenil released: 79.3%
[2]; sample C1 (0.083 g of 4.5% solution in NMP), 3 h
  % flumazenil released: 92.3%
[2]; sample C1 (0.083 g of 4.5% solution in NMP), 4 h
  % flumazenil released: 98.1%
[2]; sample C1 (0.083 g of 4.5% solution in NMP), 5 h
  % flumazenil released: 100.1%
[2]; sample C1 (0.083 g of 4.5% solution in NMP), 6 h
  % flumazenil released: 100.7%
[2]; sample C2 (0.083 g of 4.5% solution in NMP), 1 h
  % flumazenil released: 43.5%
[2]; sample C2 (0.083 g of 4.5% solution in NMP), 2 h
  % flumazenil released: 66.1%
[2]; sample C2 (0.083 g of 4.5% solution in NMP), 3 h
  % flumazenil released: 82.3%
[2]; sample C2 (0.083 g of 4.5% solution in NMP), 4 h
  % flumazenil released: 93.6%
[2]; sample C2 (0.083 g of 4.5% solution in NMP), 5 h
  % flumazenil released: 99.2%
[2]; sample C2 (0.083 g of 4.5% solution in NMP), 6 h
  % flumazenil released: 101.2%
[2]; sample C (0.083 g of 4.5% solution in NMP), rank A < B < C
  precipitation in bags during the dialysis: precipitation was observed
